Reference: patent US20210403864A1, “METHODS AND COMPOSITIONS FOR TREATING ACTIVATED G-ALPHA Q MUTANT CANCERS OR MELANOCYTIC MALIGNANCIES” (Memorial Sloan Kettering Cancer Center, priority 2018, published 2021)
Positions count from the first letter of the chain named.

Assays:
Assay in all cases: IP1 accumulation assay in mutation dependent melan-a cells
Format in all cases: cell-based, mouse
GNAQ^Q209L = molecular target: T1, GNAQ^Q209L (Homo sapiens, UniProt P50148, Q209L)
T1 construct: host or cells: melan-a (immortalized mouse melanocytes), retroviral transduction with MSCV-Puro
T1 sequence (P50148 1-359 Q209L): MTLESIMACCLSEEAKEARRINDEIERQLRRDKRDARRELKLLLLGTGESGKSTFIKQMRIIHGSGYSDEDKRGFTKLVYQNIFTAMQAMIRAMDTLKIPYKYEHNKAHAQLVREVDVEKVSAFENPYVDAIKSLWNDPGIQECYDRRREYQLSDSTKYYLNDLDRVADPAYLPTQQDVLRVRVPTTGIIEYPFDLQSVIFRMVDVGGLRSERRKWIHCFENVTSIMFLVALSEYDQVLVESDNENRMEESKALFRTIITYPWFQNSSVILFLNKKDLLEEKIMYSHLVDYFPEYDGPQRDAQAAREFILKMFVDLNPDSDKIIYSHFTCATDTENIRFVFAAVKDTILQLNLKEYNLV
Description: (§1) Cells were treated with increasing concentrations of YM-254890 (YM) for 3 hours (top) and 24 hours (bottom). Error bars, s.e.m. from three biological replicates, each with three technical replicates.
(§2) Cell Culture and in vitro analysis. Mutation dependent melan-a cells were generated by transducing cells with cDNAs in MSCV-PURO (retrovirus) and then selecting cells with puromycin (1 μg/ml) for two days. TPA (Sigma-Aldrich, St. Louis, Mo.) was then withdrawn from cultures. Cells with activating mutations (CYSLTR2^L129Q, GNAQ^G48V/R183Q/Q209L, KRAS^G12V, and BRAF^V600E) continued to proliferate over several passages (>2 weeks) and were then validated with qRT-PCR and immunoblots. Vector and WT controls were unable to maintain proliferation after a couple passages upon TPA withdrawal. All cells were cultured in media containing 10% FBS, L-glutamine ([…]), penicillin (100 U/ml), streptomycin (100 μg/ml). Melan-a cells provided by D. Bennett, St. George's Hospital, University of London (Johnson C P, et al., PLoS One. 12(6):1-17 (2017)), were cultured in RPMI supplemented with 200 nM TPA unless otherwise noted. HEK293T (from ATCC, Manassas, Va.) cells were cultured in DMEM-Q and UVM cells were cultured in RPMI. All cells tested negative for mycoplasma. Cell growth assays and YM dose response curves were assayed using CellTiter-glo 2.0 (Promega, Madison, Wis.) at given time points or after five days of incubation with YM and readout on a Glomax Luminometer (Promega, Madison, Wis.). IC50 values were calculated using Prism 7.0 software. Growth assays were compared to day 1 readings and dose response curves were compared to vehicle. Data shown is representative of at least three independent experiments with at least three technical replicates. Dose-response curves and growth assays were analyzed using GraphPad Prism 7.0 software.
(§3) IP1 Accumulation Assay. IP1 concentrations in GNAQ-transfected HEK293T cells, GNAQ-expressing melan-a cells and uveal melanoma cells was measured using a competitive homogenous time resolved fluorescence (HTRF) assay (CisBio, Bedford, Mass.). Briefly, 9,000 transiently transfected-HEK293T cells, 5,000 melan-a cells and 5,000 uveal melanoma cells were seeded in low-volume 384-well plates in 7 μL media for 24 hours prior YM-254890 treatment. Cells were then treated with various concentrations of YM-254890 diluted in the appropriate media at 37° C. for 3 hours or 24 hours. 1 h prior lysis, cells were supplemented with 1× Stimulation Buffer provided by the manufacturer (HEPES 10 mM, CaCl2) 1 mM, MgCl2 0.5 mM, KCl 4.2 mM, NaCl 146 mM, glucose 5.5 mM, LiCl 50 mM, pH 7.4) with 0.2% BSA and 50 mM of LiCl (to prevent IP1 degradation). Following incubation, cells were lysed by adding 3 μL/well of d2-labeled IP1 analogue as the fluorescence acceptor and the Terbium cryptate-labeled anti-IP1 mAb as the fluorescence donor, diluted in the kit-supplied lysis buffer. The plates were incubated overnight at RT and time-resolved fluorescence signals were read using the BioTek Synergy NEO plate reader (BioTek Instruments, Winooski, Vt.) at 620 nm and […]. Results were calculated as a 665 nm/620 nm signal ratio, and IP1 concentrations were interpolated from a standard curve prepared using the supplied IP1 calibrator. Results are shown as IP1 (nM). Dose-response curves and bar graphs were analyzed using GraphPad Prism 7.0 software.

GNAQ^G48V = molecular target: T2, GNAQ^G48V (Homo sapiens, UniProt P50148, G48V)
T2 construct: host or cells: melan-a (immortalized mouse melanocytes), retroviral transduction with MSCV-Puro
T2 sequence (P50148 1-359 G48V): T1 sequence (P50148 1-359 Q209L) with G48V, L209Q
Description: as §1, §2, §3

CYSLTR2^L129Q = conditions: 24-hour treatment
Description: as §1, §2, §3

## YM-254890
GNAQ^Q209L; 24-hour treatment
  fold less sensitive than CYSLTR2^L129Q and GNAQ^G48V mutants (IP1 accumulation): approximately 10 fold
  inhibition of IP1 accumulation: completely inhibited
GNAQ^Q209L; 3 hours of treatment
  sensitivity of IP1 accumulation after 3 hours versus 24 hours: less sensitive
GNAQ^Q209L; 3 hours of treatment, even at high doses of YM
  inhibition of IP1 accumulation: only partially inhibited
GNAQ^G48V; 24-hour treatment
  inhibition of IP1 accumulation: completely inhibited
  relative sensitivity to YM (IP1 accumulation): most sensitive
GNAQ^G48V; 3 hours of treatment
  sensitivity of IP1 accumulation after 3 hours versus 24 hours: less sensitive
CYSLTR2^L129Q
  inhibition of IP1 accumulation: completely inhibited
  relative sensitivity to YM (IP1 accumulation): most sensitive
